Like-named read-outs stand apart in the source and are kept apart here. One block for each molecule: values may come before it. *1 amine or outer side, *2 acyl side, *3 side chain or, on linkers, in order; H or OH if unused. Where a SMILES comes first, the peptide text is derived from it. Bridges are numbered along the chain shown (N, C = ends). [ ]: non-standard residue; d: D form. The star is where a group is joined. DOTA = O=C(O)CN1CCN(CC(=O)O)CCN(CC(=O)*)CCN(CC(=O)O)CC1; Pro(trans-4-F) = O=C(O)[C@@H]1C[C@@H](F)CN1; Phe(4-Cl) = N[C@@H](Cc1ccc(Cl)cc1)C(=O)O; Hyp = O=C(O)[C@@H]1C[C@@H](O)CN1; dCit = NC(=O)NCCC[C@@H](N)C(=O)O; Pentanoyl(4-Me) = CC(C)CCC(=O)*; Cit = NC(=O)NCCC[C@H](N)C(=O)O; Nva = CCC[C@H](N)C(=O)O; Hexanoyl = CCCCCC(=O)*; Pentanoyl = CCCCC(=O)*; CO = O=C([*:1])[*:2]; NHBu = CCCCN*
How the values were obtained:
[1] = molecular target: T1, Recombinant soluble human NEP (Homo sapiens, UniProt P08473); assay: Proteolytic stability assay against NEP; assay type: in vitro ADME; conditions: recombinant soluble human NEP, human NEP 100 ng/mL, compound 10 µM, 37°C, LC-MS quantification, read-out: % intact compound remaining after 24h incubation
T1 construct: Recombinant soluble human NEP; purchased BioTechne, Wiesbaden, Germany
Description: To assess the stability of compounds against NEP, the compounds were subjected to an in vitro assay based on the protocol described by Edelson et al. (Edelson, Makhlina et al. 2013).
Recombinant soluble human NEP (BioTechne, Wiesbaden, Germany) at a concentration of 100 ng/mL was mixed with the compound (10 µM) and a stable internal standard (10 µM) and incubated at 37°C. After several time points, samples were taken and analyzed with LC-MS.
The determination of the analyte in the clean sample solutions was performed on an Agilent 1290 UHPLC system coupled to an Agilent 6530 Q-TOF mass spectrometer. The chromatographic separation was carried out on a Phenomenex BioZen XB-C18 HPLC column (50 × 2 mm, 1.7 µm particle size) with gradient elution using a mixture of 0.1% formic acid in water as eluent A and acetonitrile as eluent B (2% B to 41% in 7 min, 800 µl/min, 40°C). Mass spectrometric detection was performed in positive ion ESI mode by scanning the mass range from m/z 50 to 3000 with a sampling rate of 2 / sec.
(§1) From the mass spectrometric raw data the ion currents for the double or triple charged monoisotopic signal was extracted for both, the compound and the internal standard.
(§2) Quantitation was performed by external matrix calibration with internal standard using the integrated analyte signals.
The activity of NEP was examined using a commercially available chromogenic substrate of NEP.
The result is stated as "% intact compound remaining after 24 h incubation" and means that from the amount of material at the start of the experiment the stated percentage is detected as unchanged material at the end of the experiment by LC-MS quantification. Since all compounds are more than 50% intact after 24 h they are considered as stable enough for diagnostic and therapeutic applications. Table 14: Results of the NEP stability assay

[2] = molecular target: T2, uPAR-expressing HEC-265 human endometrial adenocarcinoma cells (Homo sapiens, UniProt Q03405); assay: Competitive FACS binding assay; conditions: pIC50 category of FACS binding
T2 construct: Cell surface uPAR-expressing HEC-265 human endometrial adenocarcinoma cells; host or cells: HEC-265
Summary of the method: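 Competitive displacement of a 10 nM biotinylated peptide from HEC-265 cells (1 h, 4 °C, PBS/1% BSA), detected via APC-streptavidin by flow cytometry. pIC50 from four-parameter logistic fit of median fluorescence versus concentration.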

human uPAR (uPAR-Fc) = molecular target: T3, human uPAR (uPAR-Fc) (Homo sapiens, UniProt Q03405); assay: Surface plasmon resonance (SPR) assay, single cycle kinetics; assay type: binding; conditions: pKD category for uPAR SPR activity assay, uPAR-Fc on Protein A-Chip, 25°C, read-out: pKD CAT (converted)
T3 construct: comprising amino acids Leu23-Arg303 according to UniProt entry Q03405.1; purchased R&D Systems 10378-UK-100
Summary of the method: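 uPAR-Fc (Leu23-Arg303 extracellular domains, human IgG1 Fc) captured on Protein A chip to ~2000 RU; single-cycle kinetics at 25°C in HEPES running buffer pH 7.4 with 0.1% DMSO. KD from double-referenced sensorgrams fitted to 1:1 Langmuir model, reported as pKD.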

[3] = Plasma stability assay (mouse plasma); assay type: in vitro ADME; conditions: mouse plasma (sodium citrate 3.7%), 37°C, LC-MS quantification, read-out: % intact compound remaining after 6h incubation Mouse plasma
Description: In order to determine the stability of selected compounds of the invention in human and mouse plasma, a plasma stability assay was carried out. Such plasma stability assay measures degradation of compounds of the present invention in blood plasma. This is an important characteristic of a compound as compounds, with the exception of pro-drugs, which rapidly degrade in plasma, generally show poor in vivo efficacy. […] The stability is sufficient for the diagnostic, therapeutic and theragnostic use of these compounds according to the present invention.
The plasma stability samples were prepared by spiking 50 µl plasma aliquots (all sodium citrate 3.7%) with 1 µl of a 0.5 mM compound stock solution in DMSO. After vortexing the samples were incubated in a Thermomixer at 37°C for 0 and 6 hours. After incubation the samples were stored on ice until further treatment. All samples were prepared in duplicates.
A suitable internal standard was added to each sample (1 µl of a 0.5 mM stock solution in DMSO). Protein precipitation was performed using two different methods depending on the compound conditions as indicated in Table 13. • A) 250 µl of acetonitrile containing 1% trifluoroacetic acid was added. After incubation at room temperature for 30 min the precipitate was separated by centrifugation and 150 µl of the supernatant was diluted with 150 µl of 1% aqueous formic acid. • B) 150 µl of a zinc sulphate precipitation agent containing 78% 0.1 M zinc sulphate and 22% acetonitrile was added. After incubation at room temperature for 30 min the precipitate was separated by centrifugation. To 100 µl of the supernatant 10 µl of 1% formic acid was added followed by further incubation at 60°C for 10 min to complete the formation of the zinc chelate, if the compound contains a free DOTA moiety.
The determination of the analyte in the clean sample solutions was performed on an Agilent 1290 UHPLC system coupled to an Agilent 6530 Q-TOF mass spectrometer. The chromatographic separation was carried out on a Phenomenex BioZen XB-C18 HPLC column (50 x 2 mm, 1.7 µm particle size).
Two different elution gradients were applied using a mixture of 0.1% formic acid in water as eluent A and acetonitrile as eluent B: • A) 2% B to 41% in 7 min, 800 µl/min, 40°C. • B) 5% B to 50% B in 6 min, 800 µL/min, 40°C.
Mass spectrometric detection was performed in positive ion ESI mode by scanning the mass range from m/z 50 to 3000 with a sampling rate of 2 / sec.
as §1, §2
Additionally, recovery was determined by spiking a pure plasma sample that only contained the internal standard after treatment with a certain amount of the compound.
Carry-over was evaluated by analysis of a blank sample (20% acetonitrile) after the highest calibration sample.
The result is stated as "% intact compound remaining after 6 h incubation" and means that from the amount of material at the start of the experiment the stated percentage is detected as unchanged material at the end of the experiment by LC-MS quantification. Since all compounds are more than 50% intact after 6 h they are considered as stable enough for diagnostic and therapeutic applications. Table 13: Results of the plasma stability assay

T3 sequence (Q03405 23-303): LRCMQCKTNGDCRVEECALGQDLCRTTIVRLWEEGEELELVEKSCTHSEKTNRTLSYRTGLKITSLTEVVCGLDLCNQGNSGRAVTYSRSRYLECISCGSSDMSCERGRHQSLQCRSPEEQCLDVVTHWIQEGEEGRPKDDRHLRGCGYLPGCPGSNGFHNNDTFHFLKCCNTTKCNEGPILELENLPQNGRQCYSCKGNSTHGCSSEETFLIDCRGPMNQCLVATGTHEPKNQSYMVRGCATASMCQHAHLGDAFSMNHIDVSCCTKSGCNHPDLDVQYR
T1 sequence (P08473 52-750 limits assumed): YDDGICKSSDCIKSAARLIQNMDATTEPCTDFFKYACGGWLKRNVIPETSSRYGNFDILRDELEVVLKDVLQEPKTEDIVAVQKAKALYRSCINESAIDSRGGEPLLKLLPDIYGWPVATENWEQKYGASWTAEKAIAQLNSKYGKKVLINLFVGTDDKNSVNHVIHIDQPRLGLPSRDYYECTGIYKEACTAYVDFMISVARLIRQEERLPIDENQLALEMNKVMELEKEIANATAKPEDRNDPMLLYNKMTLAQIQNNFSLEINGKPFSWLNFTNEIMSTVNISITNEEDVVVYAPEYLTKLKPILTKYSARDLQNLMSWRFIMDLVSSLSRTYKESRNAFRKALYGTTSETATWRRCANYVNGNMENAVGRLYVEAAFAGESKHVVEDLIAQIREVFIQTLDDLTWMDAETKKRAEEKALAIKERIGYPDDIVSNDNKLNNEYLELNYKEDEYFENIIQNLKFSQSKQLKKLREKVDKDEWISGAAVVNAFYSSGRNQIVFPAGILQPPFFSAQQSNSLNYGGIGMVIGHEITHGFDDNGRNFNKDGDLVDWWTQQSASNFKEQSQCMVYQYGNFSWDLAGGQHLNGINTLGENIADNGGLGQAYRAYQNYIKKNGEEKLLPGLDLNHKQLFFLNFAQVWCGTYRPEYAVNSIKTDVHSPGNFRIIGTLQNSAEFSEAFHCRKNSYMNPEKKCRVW
T2 sequence (Q03405 23-335): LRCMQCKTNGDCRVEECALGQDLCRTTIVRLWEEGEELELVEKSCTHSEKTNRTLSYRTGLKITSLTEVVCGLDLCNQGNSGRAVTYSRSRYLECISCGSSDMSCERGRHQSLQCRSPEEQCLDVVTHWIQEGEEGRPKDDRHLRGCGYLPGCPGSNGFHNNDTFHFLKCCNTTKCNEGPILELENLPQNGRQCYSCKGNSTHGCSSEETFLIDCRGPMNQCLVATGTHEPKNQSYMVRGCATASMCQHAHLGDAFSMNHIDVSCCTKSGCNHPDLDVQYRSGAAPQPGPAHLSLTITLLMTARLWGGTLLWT

Structure (SMILES): CCCCC(=O)N[C@H]1CSSC[C@@H](C(N)=O)NC(=O)[C@H](CCC)NC(=O)[C@H]([C@@H](C)CC)NC(=O)[C@@H]2C[C@@H](O)CN2C(=O)[C@@H]2CCCN2C(=O)[C@H](Cc2ccc(Cl)cc2)NC(=O)[C@H](Cc2ccc(O)cc2)NC(=O)[C@H](CCCCNC(=O)CN2CCN(CC(=O)O)CCN(CC(=O)O)CCN(CC(=O)O)CC2)NC(=O)[C@H](CCCNC(N)=O)NC1=O [UPAR-233, Pent-[Cys-Cit-Lys(DOTA)-Tyr-Pcf-Pro-Hyp-Ile-Nva-Cys]-NH2] (Pentanoyl-C[Cit]K(DOTA)Y[Phe(4-Cl)]P[Hyp]I[Nva]C-NH2; disulfide 1-10)
remaining at 24 h, 10 µM [1]: > 95% | IC50 [2]: ≤ 10 nM | Kd (human uPAR (uPAR-Fc)): < 1.58 nM

Structure (SMILES): CCCCC(=O)N[C@H]1CSSC[C@@H](C(N)=O)NC(=O)[C@H](CCC)NC(=O)[C@H]([C@@H](C)CC)NC(=O)[C@@H]2C[C@@H](F)CN2C(=O)[C@@H]2CCCN2C(=O)[C@H](Cc2ccccc2)NC(=O)[C@H](Cc2ccc(O)cc2)NC(=O)[C@H](CCCCNC(=O)CN2CCN(CC(=O)O)CCN(CC(=O)O)CCN(CC(=O)O)CC2)NC(=O)[C@H](CCCNC(N)=O)NC1=O [UPAR-246, Pent-[Cys-Cit-Lys(DOTA)-Tyr-Phe-Pro-4Tfp-Ile-Nva-Cys]-NH2] (Pentanoyl-C[Cit]K(DOTA)YFP[Pro(trans-4-F)]I[Nva]C-NH2; disulfide 1-10)
remaining at 24 h, 10 µM [1]: 89% | IC50 [2]: ≤ 10 nM | Kd (human uPAR (uPAR-Fc)): < 1.58 nM

Structure (SMILES): CCCCNC(=O)N[C@H]1CSSC[C@@H](C(N)=O)NC(=O)[C@H](CCC)NC(=O)[C@H]([C@@H](C)CC)NC(=O)[C@@H]2C[C@@H](O)CN2C(=O)[C@@H]2CCCN2C(=O)[C@H](Cc2ccccc2)NC(=O)[C@H](Cc2ccc(O)cc2)NC(=O)[C@H](CCCCNC(=O)CN2CCN(CC(=O)O)CCN(CC(=O)O)CCN(CC(=O)O)CC2)NC(=O)[C@H](CCCNC(N)=O)NC1=O [UPAR-346, nBu-CAyl-[Cys-Cit-Lys(DOTA)-Tyr-Phe-Pro-Hyp-Ile-Nva-Cys]-NH2] ({NHBu-CO}-C[Cit]K(DOTA)YFP[Hyp]I[Nva]C-NH2; disulfide 1-10)
remaining at 24 h, 10 µM [1]: 89% | IC50 [2]: ≤ 10 nM | Kd (human uPAR (uPAR-Fc); single cycle kinetics): < 1.58 nM

Structure (SMILES): CCCCCC(=O)N[C@@H](CC(=O)O)C(=O)N[C@@H](CC(C)C)C(=O)N[C@H]1CSSC[C@@H](C(N)=O)NC(=O)[C@H](CC(C)C)NC(=O)[C@H]([C@@H](C)CC)NC(=O)[C@H](CCCCNC(=O)CN2CCN(CC(=O)O)CCN(CC(=O)O)CCN(CC(=O)O)CC2)NC(=O)[C@@H]2CCCN2C(=O)[C@H](Cc2ccccc2)NC(=O)[C@H](Cc2ccc(O)cc2)NC(=O)[C@H](CCSC)NC(=O)[C@H](CCCNC(=N)N)NC1=O [UPAR-351, Hex-Asp-Leu-[Cys-Arg-Met-Tyr-Phe-Pro-Lys(DOTA)-Ile-Leu-Cys]-NH2] (Hexanoyl-DLCRMYFPK(DOTA)ILC-NH2; disulfide 3-12)
IC50 [2]: ≤ 10 nM | remaining at 6 h, 9.8 µM [3]: > 95% | Kd (human uPAR (uPAR-Fc); single cycle kinetics): < 1.58 nM

The next lines start with the values.

remaining at 24 h, 10 µM [1]: > 95% | IC50 [2]: ≥ 126 nM | Kd (human uPAR (uPAR-Fc); single cycle kinetics): > 100 nM
Structure (SMILES): CC[C@H](C)[C@@H]1NC(=O)[C@@H](C)NC(=O)[C@@H]2CCCN2C(=O)[C@H](Cc2ccccc2)NC(=O)[C@H](Cc2ccc(O)cc2)NC(=O)[C@H](CCC(N)=O)NC(=O)[C@@H](CCCNC(N)=O)NC(=O)[C@@H](NC(=O)CCC(C)C)CSSC[C@@H](C(N)=O)NC(=O)[C@H](CC(C)C)NC1=O [UPAR-364, iHex-[Cys-cit-Gln-Tyr-Phe-Pro-ala-Ile-Leu-Cys]-NH2] ({Pentanoyl(4-Me)}-C[dCit]QYFP[dA]ILC-NH2; disulfide 1-10)

IC50 [2]: ≤ 10 nM | remaining at 6 h, 9.8 µM [3]: 85% | Kd (human uPAR (uPAR-Fc); single cycle kinetics): < 1.58 nM
Structure (SMILES): CC[C@H](C)[C@@H]1NC(=O)[C@@H](C)NC(=O)[C@@H]2CCCN2C(=O)[C@H](Cc2ccccc2)NC(=O)[C@H](Cc2ccc(O)cc2)NC(=O)[C@H](CCC(N)=O)NC(=O)[C@H](CCCNC(N)=O)NC(=O)[C@@H](NC(=O)[C@H](CC(C)C)NC(C)=O)CSSC[C@@H](C(N)=O)NC(=O)[C@H](CC(C)C)NC1=O [UPAR-418, Ac-Leu-[Cys-Cit-Gln-Tyr-Phe-Pro-ala-Ile-Leu-Cys]-NH2] (Ac-LC[Cit]QYFP[dA]ILC-NH2; disulfide 2-11)

IC50 [2]: ≤ 10 nM | remaining at 6 h, 9.8 µM [3]: > 95% | Kd (human uPAR (uPAR-Fc); single cycle kinetics): < 1.58 nM
Structure (SMILES): CCCCCC(=O)N[C@@H](CC(=O)O)C(=O)N[C@@H](CC(C)C)C(=O)N[C@H]1CSSC[C@@H](C(N)=O)NC(=O)[C@H](CC(C)C)NC(=O)[C@H]([C@@H](C)CC)NC(=O)[C@H](C)NC(=O)[C@@H]2CCCN2C(=O)[C@H](Cc2ccccc2)NC(=O)[C@H](Cc2ccc(O)cc2)NC(=O)[C@H](CCCCNC(=O)CN2CCN(CC(=O)O)CCN(CC(=O)O)CCN(CC(=O)O)CC2)NC(=O)[C@H](CCCNC(=N)N)NC1=O [UPAR-427, Hex-Asp-Leu-[Cys-Arg-Lys(DOTA)-Tyr-Phe-Pro-Ala-Ile-Leu-Cys]-NH2] (Hexanoyl-DLCRK(DOTA)YFPAILC-NH2; disulfide 3-12)

remaining at 24 h, 10 µM [1]: > 95% | IC50 [2]: ≤ 10 nM | Kd (human uPAR (uPAR-Fc); single cycle kinetics): < 1.58 nM
Structure (SMILES): CC[C@H](C)[C@@H]1NC(=O)[C@@H]2CCCN2C(=O)[C@@H]2CCCN2C(=O)[C@H](Cc2ccccc2)NC(=O)[C@H](Cc2ccc(O)cc2)NC(=O)[C@H](CCC(N)=O)NC(=O)[C@H](CCCCNC(=O)CN2CCN(CC(=O)O)CCN(CC(=O)O)CCN(CC(=O)O)CC2)NC(=O)[C@@H](NC(=O)CCC(C)C)CSSC[C@@H](C(N)=O)NC(=O)[C@H](CC(C)C)NC1=O [UPAR-466, iHex-[Cys-Lys(DOTA)-Gln-Tyr-Phe-Pro-Pro-Ile-Leu-Cys]-NH2] ({Pentanoyl(4-Me)}-CK(DOTA)QYFPPILC-NH2; disulfide 1-10)

Source: patent EP4610269A1, “UROKINASE PLASMINOGEN ACTIVATOR SURFACE RECEPTOR (UPAR) LIGANDS FOR DIAGNOSTIC OR THERAPEUTIC USE” (3B Pharmaceuticals GmbH, priority 2024, dated 2025)
